ChEMBL document CHEMBL1201862, “PubChem BioAssay data set” (2004)
Active and inactive are the calls of the source.

Experiments:
[1] = inhibitors of HIV Env-driven cell fusion, dose response, cherry-pick (AID 652057); format: functional, cell-based
[2] = ZM109 Env clade C HIV-1 fusion inhibitors, dose response, HeLa effector, CEM target cells, luciferase, cherry-pick (AID 652058); format: functional, cell-based
[3] = inhibitors of clade B AD8 Env fusion, dose response, cell-based, cherry-pick (AID 652062); format: functional;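 note: luciferase signal from cell-cell fusion driven by HIV-1 clade B AD8 Env; potency is for inhibitors of fusion seen as a drop in luminescence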
[4] = P. falciparum 3D7-ScDHODH growth inhibitors, dose response, SYBR Green, dry powder samples (AID 1159570); format: functional, cell-based;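 note: parasite growth measured after 72 hours of compound exposure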
[5] = P. falciparum Dd2 growth inhibitors, dose response, SYBR Green, cherry-picked samples (AID 1159567); format: functional, cell-based
[6] = P. falciparum Dd2 growth inhibitors, dose response, SYBR Green, dry powder samples (AID 1159566); format: functional, cell-based;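 note: potency for growth inhibition with lower SYBR green DNA signal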
[7] = P. falciparum ATP4 D1247Y mutant growth inhibitors, dose response, NITD609-resistant line, SYBR Green, dry powder (AID 1159571); format: functional, cell-based;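 note: parasites synchronized at ring stage by sorbitol before testing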
[8] = target: T1, Caspase-3 (Homo sapiens, UniProt P42574); format: functional;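 note: Dose-response selectivity test against caspase-3 for candidate inhibitors of sentrin-specific proteases (SENPs)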
T1 sequence (P42574 whole entry): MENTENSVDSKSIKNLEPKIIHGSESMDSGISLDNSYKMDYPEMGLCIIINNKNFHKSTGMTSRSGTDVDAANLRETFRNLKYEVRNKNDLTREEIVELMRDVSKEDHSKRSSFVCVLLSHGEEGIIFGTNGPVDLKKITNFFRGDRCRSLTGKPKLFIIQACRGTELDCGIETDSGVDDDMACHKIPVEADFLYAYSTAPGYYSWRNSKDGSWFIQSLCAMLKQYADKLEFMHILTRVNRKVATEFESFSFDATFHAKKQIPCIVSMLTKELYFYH

[9] = target: T2, Sentrin-specific protease 7 (Homo sapiens, UniProt Q9BQF6); format: functional;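 note: Luminescence-based dose-response confirmation of ultra-high-throughput screening hits, measuring inhibition of SENP7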
T2 sequence (Q9BQF6 whole entry): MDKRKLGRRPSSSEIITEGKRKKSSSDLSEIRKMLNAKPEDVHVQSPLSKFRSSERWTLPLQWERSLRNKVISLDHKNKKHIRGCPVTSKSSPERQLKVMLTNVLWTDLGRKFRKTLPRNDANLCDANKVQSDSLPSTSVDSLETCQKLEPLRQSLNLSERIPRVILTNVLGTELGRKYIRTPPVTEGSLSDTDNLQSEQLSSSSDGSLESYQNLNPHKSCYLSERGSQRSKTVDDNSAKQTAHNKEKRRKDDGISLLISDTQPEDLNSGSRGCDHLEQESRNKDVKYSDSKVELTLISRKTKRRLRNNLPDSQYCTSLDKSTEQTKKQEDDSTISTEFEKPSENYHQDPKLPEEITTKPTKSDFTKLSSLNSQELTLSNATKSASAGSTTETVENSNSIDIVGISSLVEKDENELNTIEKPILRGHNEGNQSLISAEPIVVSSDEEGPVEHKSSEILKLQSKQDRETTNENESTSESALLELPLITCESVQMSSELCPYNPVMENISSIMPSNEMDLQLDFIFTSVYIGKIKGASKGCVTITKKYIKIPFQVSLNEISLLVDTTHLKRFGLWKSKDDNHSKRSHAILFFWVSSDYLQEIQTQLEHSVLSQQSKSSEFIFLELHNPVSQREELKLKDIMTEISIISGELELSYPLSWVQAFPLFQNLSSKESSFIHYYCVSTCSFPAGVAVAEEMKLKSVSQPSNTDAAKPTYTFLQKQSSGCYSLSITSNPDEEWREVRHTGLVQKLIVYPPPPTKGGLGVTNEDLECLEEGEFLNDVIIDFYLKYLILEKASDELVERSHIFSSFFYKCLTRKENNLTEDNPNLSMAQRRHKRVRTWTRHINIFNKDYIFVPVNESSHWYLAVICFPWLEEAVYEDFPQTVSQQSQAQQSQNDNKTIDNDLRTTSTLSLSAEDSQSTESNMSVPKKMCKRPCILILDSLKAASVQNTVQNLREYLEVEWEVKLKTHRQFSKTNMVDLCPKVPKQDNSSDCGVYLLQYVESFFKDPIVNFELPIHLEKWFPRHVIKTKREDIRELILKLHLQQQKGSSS

[10] = target: T3, Sentrin-specific protease 6 (Homo sapiens, UniProt Q9GZR1); format: functional;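 note: Luminescence-based dose-response confirmatory assay of SENP6 inhibition, following up an ultra-high-throughput screen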
T3 sequence (Q9GZR1 whole entry): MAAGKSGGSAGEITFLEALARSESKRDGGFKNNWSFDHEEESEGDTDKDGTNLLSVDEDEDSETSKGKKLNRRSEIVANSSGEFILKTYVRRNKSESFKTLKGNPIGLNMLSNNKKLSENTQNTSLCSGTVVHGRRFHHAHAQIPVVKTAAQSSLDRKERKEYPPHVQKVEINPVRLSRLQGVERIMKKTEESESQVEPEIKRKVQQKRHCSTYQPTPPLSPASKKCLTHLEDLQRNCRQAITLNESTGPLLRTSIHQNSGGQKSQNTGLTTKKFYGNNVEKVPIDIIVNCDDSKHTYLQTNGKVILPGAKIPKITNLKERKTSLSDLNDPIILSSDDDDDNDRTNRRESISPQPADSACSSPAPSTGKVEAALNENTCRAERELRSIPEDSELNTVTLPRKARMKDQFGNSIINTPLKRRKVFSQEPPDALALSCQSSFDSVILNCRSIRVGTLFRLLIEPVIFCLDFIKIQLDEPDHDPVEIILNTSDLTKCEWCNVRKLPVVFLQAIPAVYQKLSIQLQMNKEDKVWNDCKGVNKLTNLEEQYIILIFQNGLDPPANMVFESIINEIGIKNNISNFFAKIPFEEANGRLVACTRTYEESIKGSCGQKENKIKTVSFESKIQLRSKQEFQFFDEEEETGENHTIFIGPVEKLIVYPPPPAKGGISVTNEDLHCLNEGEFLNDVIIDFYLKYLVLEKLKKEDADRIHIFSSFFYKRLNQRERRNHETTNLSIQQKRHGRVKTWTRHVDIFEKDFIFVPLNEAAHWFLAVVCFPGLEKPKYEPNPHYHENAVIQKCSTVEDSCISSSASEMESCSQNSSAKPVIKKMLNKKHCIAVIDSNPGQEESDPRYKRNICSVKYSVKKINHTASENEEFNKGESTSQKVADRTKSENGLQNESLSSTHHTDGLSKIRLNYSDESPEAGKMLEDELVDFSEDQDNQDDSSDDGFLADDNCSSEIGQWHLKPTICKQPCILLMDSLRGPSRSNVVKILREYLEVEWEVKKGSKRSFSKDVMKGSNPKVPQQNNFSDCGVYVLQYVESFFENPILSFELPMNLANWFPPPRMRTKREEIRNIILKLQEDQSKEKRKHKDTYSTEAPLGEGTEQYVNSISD

[11] = target: T4, Sentrin-specific protease 8 (Homo sapiens, UniProt Q96LD8); format: functional;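 note: luminescence read-out of SENP8 inhibition, dose-response confirmation following an ultra-high-throughput screen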
T4 sequence (Q96LD8 whole entry): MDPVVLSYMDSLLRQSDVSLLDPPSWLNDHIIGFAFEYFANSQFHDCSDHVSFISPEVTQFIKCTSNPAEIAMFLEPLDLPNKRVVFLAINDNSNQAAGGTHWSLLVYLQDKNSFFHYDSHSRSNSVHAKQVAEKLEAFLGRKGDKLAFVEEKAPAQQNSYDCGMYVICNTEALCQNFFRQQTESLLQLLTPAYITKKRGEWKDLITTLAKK

[12] = tested on: P388/ADR; assay: cells; format: functional; details: Mus musculus
[13] = tested on: SN12K1; assay: cells; format: functional; details: Homo sapiens
[14] = A Cell Based Secondary Assay To Explore Cytotoxicity of Compounds that Sensitize Mycobacterium Tuberculosis to Beta-Lactam Antibiotics.; format: functional
[15] = growth suppression of PTEN-null colon cells, dose response, cell-based, HCT116 PTEN knockout (AID 1047); format: functional;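 note: HCT116 colon tumor cells with PTEN knocked out; cells exposed to compound for 60 hours before readout; potency for loss of cell viability measured by luminescence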
[16] = growth suppression of beta-catenin-knockout colon cells, dose response, cell-based, HCT116, human colon tumor (AID 1045); format: functional;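 note: HCT116 colon tumor cells with beta catenin knocked out; cells exposed to compound for 60 hours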
[17] = target: Eukaryotic translation initiation factor 4E (Mus musculus, UniProt P63073); assay: eIF4E–eIF4G protein interaction inhibitors, dose response, biochemical, TR-FRET (AID 855); format: functional;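 note: potency for disrupting eIF4E binding to eIF4GI seen as loss of FRET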
[18] = tested on: Streptococcus sp. 'group A'; assay: growth inhibition of control SK(-) GAS strain, dose response, counter-screen for streptokinase expression inhibitor project, luminescence, kanamycin, BacTiterGlo, confirmation (AID 1900); format: functional, organism-based
[19] = target: T5, Streptokinase A (Streptococcus pyogenes serotype M1, UniProt P10520); assay: S. pyogenes streptokinase expression inhibitors, potency, dose response, plasminogen activation absorbance, OD405 (AID 1914); format: functional, Streptococcus pyogenes M1 GAS;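 note: secreted streptokinase activity via plasminogen activation per viability signal from cell pellet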
T5 sequence (P10520 whole entry): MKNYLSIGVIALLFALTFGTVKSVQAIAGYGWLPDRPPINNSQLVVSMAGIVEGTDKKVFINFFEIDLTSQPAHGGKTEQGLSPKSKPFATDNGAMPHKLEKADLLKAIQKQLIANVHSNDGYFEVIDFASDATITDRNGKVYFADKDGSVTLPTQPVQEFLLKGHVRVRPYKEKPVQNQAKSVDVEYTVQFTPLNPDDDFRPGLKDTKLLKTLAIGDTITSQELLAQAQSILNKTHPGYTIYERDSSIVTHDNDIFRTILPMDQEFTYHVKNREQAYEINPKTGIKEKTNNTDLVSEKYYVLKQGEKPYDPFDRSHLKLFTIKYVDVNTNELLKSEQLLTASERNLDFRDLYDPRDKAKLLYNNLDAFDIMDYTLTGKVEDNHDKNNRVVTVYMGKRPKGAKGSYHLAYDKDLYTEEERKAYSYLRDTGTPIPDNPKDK

[20] = tested on: Streptococcus; assay: Group A Streptococcus viability loss, dose response, counter-screen for streptokinase expression inhibitor project, luminescence, BacTiterGlo (AID 1915); format: functional, organism-based;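 note: potency for reduction of bacterial viability or growth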
[21] = A549 cell cytotoxicity, dose response, cytotoxicity control, plate reader, cherry-pick, antagonist series (AID 743412); format: functional, cell-based
[22] = LGR2 antagonists, dose response, cell-based, HEK293, CRE-luciferase reporter, cherry pick, set 2 (AID 743343); format: functional;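 note: transfected cells were stimulated with diluted bursicon conditioned medium after compound addition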
[23] = MC4R antagonists, dose response, counter-screen for LGR2 antagonist project, cell-based, plate reader, cherry pick (AID 743444); format: functional;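 note: transfected HEK 293 cells stimulated with alpha-MSH peptide; potency of inhibitors of the alpha-MSH evoked signal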
[24] = target: Cytochrome P450 2C19 (Homo sapiens, UniProt P33261); assay: Cytochrome panel assay with activity outcomes. Panel member name: p450-cyp2c19 Compounds with AC50 equal or less than 10 uM are considered active; format: functional; details: read-out: AC50
Cytochrome P450 2C19, sequence (P33261 whole entry): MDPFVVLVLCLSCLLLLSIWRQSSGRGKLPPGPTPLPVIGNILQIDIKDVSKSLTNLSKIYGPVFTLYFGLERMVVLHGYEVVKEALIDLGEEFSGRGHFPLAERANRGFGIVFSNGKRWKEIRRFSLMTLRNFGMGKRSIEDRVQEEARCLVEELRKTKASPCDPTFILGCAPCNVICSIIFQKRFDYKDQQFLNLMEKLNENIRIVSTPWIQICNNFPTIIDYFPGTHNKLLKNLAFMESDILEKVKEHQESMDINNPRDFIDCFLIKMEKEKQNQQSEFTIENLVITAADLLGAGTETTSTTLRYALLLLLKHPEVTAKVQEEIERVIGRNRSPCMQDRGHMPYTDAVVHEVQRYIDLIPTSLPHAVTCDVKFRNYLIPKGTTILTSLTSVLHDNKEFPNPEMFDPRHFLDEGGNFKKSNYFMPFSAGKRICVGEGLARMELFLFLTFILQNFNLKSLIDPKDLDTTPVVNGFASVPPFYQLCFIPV

Eukaryotic translation initiation factor 4E, sequence (P63073 whole entry): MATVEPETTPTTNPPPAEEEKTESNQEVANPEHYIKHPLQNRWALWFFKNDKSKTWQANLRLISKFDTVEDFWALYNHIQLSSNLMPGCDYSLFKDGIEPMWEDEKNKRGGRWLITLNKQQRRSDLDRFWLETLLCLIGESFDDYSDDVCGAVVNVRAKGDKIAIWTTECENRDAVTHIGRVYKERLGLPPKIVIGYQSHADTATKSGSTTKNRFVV

## COc1ccc(S(=O)(=O)Nc2ccc3c(c2)CC(=O)N([C@H](C)CO)C[C@H](C)[C@H](CN(C)S(=O)(=O)c2ccc(C)cc2)O3)cc1
[1]
  AC50: < 0.26 µM (active)
[2]
  AC50: 0.33 µM (active)
[3]
  AC50: 1.01 µM (active)
[4]
  AC50: 1.89 µM (active)
[5]
  AC50: 1.89 µM (active)
[6]
  AC50: 1.88 µM (active)
[7]
  AC50: 1.6 µM (active)

## C[C@@H]1CN([C@@H](C)CO)C(=O)c2cccc(NC(=O)c3ccc(-c4nccs4)cc3)c2O[C@H]1CN(C)CC1CC1
[2]
  AC50: 40.2 µM (active)

## Cc1ccc(C(=O)c2cc3ccccc3o2)cc1C
[8]
  IC50: 11.2 µM (active)
[9]
  IC50: 3.18 µM (active)
[10]
  IC50: 6.41 µM (active)
[11]
  IC50: 10.6 µM (active)

## C=C1C(O)C2(O)OCC34C(CC5C(C)=CC(=O)C(O)C5(C)C23)OC(=O)C(OC(=O)C/C=C(\C)CCCCC)C14 (centres undefined)
[12]
  GI50: 0.0933 µM (active)
[13]
  GI50: 0.0125 µM (active)

## COc1ccc(C(=O)Nc2ccccc2C(=O)NC(C(=O)NCc2ccco2)C(C)C)cc1 (centres undefined)
[14]
  CC50: 16.9 µM (active)
[15]
  EC50: 4.63 µM (active)
[16]
  EC50: 8.16 µM (active)

## COc1ccc([C@H]2[C@H](C(C)=O)N3N=Cc4ccccc4C3C23C(=O)OC(C)(C)OC3=O)cc1 (some centres undefined)
[17]
  IC50: > 64 µM (inactive)

## CN(C)c1ccc(/C=N/Nc2nc3ccccc3o2)cc1
[18]
  EC50: > 150 µM (not active)
[19]
  EC50: > 150 µM (not active)
[20]
  EC50: > 150 µM (not active)
[8]
  IC50: 2.05 µM (active)
[9]
  IC50: < 1.55 µM (active)
[10]
  IC50: 1.72 µM (active)
[11]
  IC50: 1.74 µM (active)

## Cc1ccc(OCc2nnc(-c3ccccn3)[nH]2)cc1
[17]
  IC50: > 64 µM (inactive)

## O=C(O)C(Oc1ccc2cc(-c3ccc(Cl)cc3)c(=O)oc2c1)c1ccccc1 (centres undefined)
[8]
  IC50: 38.3 µM (active)
[9]
  IC50: 28.7 µM (active)
[10]
  IC50: 31.3 µM (active)
[11]
  IC50: 31.8 µM (active)

## COCc1nnc(NC(=O)c2ccc(S(=O)(=O)N(C)c3ccccc3)cc2)o1
[14]
  CC50: 18.6 µM (active)
[15]
  EC50: 20.6 µM (active)
[16]
  EC50: 18.3 µM (active)

## CC1CCCN(S(=O)(=O)c2ccc(C(=O)Nc3nnc(-c4ccncc4)o3)cc2)C1 (centres undefined)
[14]
  CC50: 12.7 µM (active)

## O=C(Nc1ccc2ncccc2c1)c1cccc(Br)c1
[8]
  IC50: 32.1 µM (active)
[9]
  IC50: 8.67 µM (active)
[10]
  IC50: 29.1 µM (active)
[11]
  IC50: 28.7 µM (active)

## Cc1ccc(S(=O)(=O)N2CCCCC2)cc1NC(=O)c1ccc2c(=O)n3c(nc2c1)CCCCC3
[21]
  AC50: 26.8 µM (active)
[22]
  AC50: 12.8 µM (active)
[23]
  AC50: 12.4 µM (active)

## CCNC(=O)CCn1nc(-c2ccc(Cl)cc2)c2ccccc2c1=O
[14]
  CC50: > 40 µM (active)

## Cc1ccc(-n2c(SCC(=O)NCc3ccco3)nc3sc4c(c3c2=O)CC(C)(C)SC4)cc1
[14]
  CC50: > 40 µM (active)
[24]
  AC50: 8.91 µM (inconclusive)
